From patent publication US20260070913A1, “7-AMINO-3,4-DIHYDROPYRIMIDOPYRIMIDIN-2-ONE DERIVATIVE HAVING INHIBITORY ACTIVITY FOR PROTEIN KINASES AND THERAPEUTIC PHARMACEUTICAL COMPOSITION COMPRISING SAME” (KOREA INSTITUTE OF SCIENCE AND TECHNOLOGY, priority 2020, published 2026) come the findings set out here.

Where only a bound is given, the exact number is not on record here.

A word on the IC50: it is the midpoint of a concentration-inhibition curve. In general, GI50 refers to the concentration that inhibits growth by half.

One assay deals with ACK1 (Homo sapiens, UniProt Q07912). In words: Inhibitory activity against ACK1 kinase. It counts as biochemical. As to the method:
(§1) The inhibitory activities of the compounds of the present disclosure against two kinases, GCK and ACK1, were measured, and the IC50 values thereof were calculated.

The subject of a further assay is Ba/F3 (N-Ras G12D). Nature of the assay: Proliferation inhibitory activity, mt-NRAS (G12D) Ba/F3 cell line. The class given is cell-based. Conditions: Mus musculus, BaF3. As to the method:
(§2) The inhibitory activities of the compounds of the present disclosure against the proliferation of the mt-NRAS (G12D) Ba/F3 and OCI-AML3 (mt-NRAS) cell lines were measured, and the […] values thereof were calculated.

For another assay, the system named is OCI-AML3 (N-Ras Q61L). Nature of the assay: Proliferation inhibitory activity, OCI-AML3 cell line. The class given is cell-based. As to conditions: Homo sapiens, OCI-AML-3. On the procedure: as §2
Referring to the results in Table 2, it can be seen that the compound of the present disclosure has inhibitory activity against the proliferation of the human acute myeloid leukemia cell line (OCI-AML3) having the NRAS mutant gene, and the effect thereof is remarkable. Therefore, it can be seen that the compound of the present disclosure is particularly effective as a therapeutic agent for acute myeloid leukemia (AML).

Another assay addresses T1, GCK (Homo sapiens, UniProt Q12851).
T1 sequence (Q12851 1-820): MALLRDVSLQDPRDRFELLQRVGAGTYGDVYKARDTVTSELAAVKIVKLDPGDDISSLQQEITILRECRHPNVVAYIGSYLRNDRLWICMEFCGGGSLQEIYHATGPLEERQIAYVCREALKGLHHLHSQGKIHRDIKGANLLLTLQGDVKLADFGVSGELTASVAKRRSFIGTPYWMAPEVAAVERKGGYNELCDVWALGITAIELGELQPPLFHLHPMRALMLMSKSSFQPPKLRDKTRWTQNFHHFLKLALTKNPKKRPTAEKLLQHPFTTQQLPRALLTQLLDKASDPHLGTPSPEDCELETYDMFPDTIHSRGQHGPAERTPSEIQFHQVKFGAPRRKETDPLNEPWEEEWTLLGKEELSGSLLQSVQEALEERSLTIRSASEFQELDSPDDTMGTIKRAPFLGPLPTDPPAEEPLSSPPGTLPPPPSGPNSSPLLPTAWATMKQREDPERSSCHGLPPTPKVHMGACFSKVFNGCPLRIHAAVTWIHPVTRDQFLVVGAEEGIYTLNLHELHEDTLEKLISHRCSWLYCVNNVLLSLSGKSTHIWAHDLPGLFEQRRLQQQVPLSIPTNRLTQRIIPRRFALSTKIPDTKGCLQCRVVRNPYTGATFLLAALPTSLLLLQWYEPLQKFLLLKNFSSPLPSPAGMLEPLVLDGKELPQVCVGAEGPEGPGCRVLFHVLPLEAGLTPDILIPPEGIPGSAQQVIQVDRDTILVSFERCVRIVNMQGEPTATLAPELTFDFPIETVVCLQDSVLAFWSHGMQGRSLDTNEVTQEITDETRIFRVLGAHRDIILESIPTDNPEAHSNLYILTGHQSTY
In words: Inhibitory activity against GCK kinase. It counts as biochemical. As to the method:
as §1

ACK1, sequence (Q07912 whole entry): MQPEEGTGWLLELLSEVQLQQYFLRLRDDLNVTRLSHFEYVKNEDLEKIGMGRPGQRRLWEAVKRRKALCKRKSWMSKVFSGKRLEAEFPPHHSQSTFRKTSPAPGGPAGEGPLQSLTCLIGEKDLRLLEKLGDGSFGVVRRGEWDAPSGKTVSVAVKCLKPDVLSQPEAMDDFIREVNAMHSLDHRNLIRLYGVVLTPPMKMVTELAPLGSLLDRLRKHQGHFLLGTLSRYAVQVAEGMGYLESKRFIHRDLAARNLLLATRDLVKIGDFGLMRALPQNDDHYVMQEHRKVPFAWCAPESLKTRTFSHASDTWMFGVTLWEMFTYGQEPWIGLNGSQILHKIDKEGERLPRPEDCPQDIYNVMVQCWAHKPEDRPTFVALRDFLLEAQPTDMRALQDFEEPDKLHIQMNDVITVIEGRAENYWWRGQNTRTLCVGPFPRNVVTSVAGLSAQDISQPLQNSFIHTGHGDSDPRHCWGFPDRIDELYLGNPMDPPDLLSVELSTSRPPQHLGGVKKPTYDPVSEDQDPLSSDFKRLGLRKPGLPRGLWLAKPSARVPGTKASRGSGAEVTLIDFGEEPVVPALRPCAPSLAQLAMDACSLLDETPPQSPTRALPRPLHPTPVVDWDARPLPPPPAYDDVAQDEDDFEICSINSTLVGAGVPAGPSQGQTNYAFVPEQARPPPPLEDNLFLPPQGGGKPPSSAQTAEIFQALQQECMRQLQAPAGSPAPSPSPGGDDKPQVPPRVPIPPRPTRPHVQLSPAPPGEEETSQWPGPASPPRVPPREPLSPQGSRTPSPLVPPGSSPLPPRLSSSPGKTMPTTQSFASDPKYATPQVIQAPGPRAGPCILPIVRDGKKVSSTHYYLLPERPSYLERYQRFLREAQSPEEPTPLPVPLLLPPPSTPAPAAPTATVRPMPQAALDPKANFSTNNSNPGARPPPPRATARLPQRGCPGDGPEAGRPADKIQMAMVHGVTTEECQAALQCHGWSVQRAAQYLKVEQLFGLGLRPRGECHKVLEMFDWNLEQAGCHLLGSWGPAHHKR

On to `Cc1ccc(-c2ncc(-c3cccc(F)c3F)[nH]2)cc1N1Cc2cnc(NC3CC3)nc2N(C)C1=O` [Compound No. 11, 7-(cyclopropylamine)-3-(5-(5-(2,3-difluorophenyl)-1H-imidazol-2-yl)-2-methylphenyl)-1-methyl-3,4-dihydropyrimido[4,5-d]pyrimidin-2(1H)-one], for which the IC50 on ACK1 is 1000 to 10000 nM; against GCK, more than 10000 nM. Also, the GI50 with Ba/F3 (N-Ras G12D) and with OCI-AML3 (N-Ras Q61L) was 0.5 to 3 µM in each case.

Consider `COc1ccccc1-c1cnc(-c2ccc(C)c(N3Cc4cnc(Nc5cnn(C)c5)nc4N(C)C3=O)c2)[nH]1` [Compound No. 1, 3-(5-(5-(2-methoxyphenyl)-1H-imidazol-2-yl)-2-methylphenyl)-1-methyl-7-((1-methyl-1H-pyrazol-4-yl)amino)-3,4-dihydropyrimido[4,5-d]pyrimidin-2(1H)-one], for which the IC50 is less than 100 nM at ACK1 and 100 to 1000 nM on GCK. The concentration for 50% growth inhibition (GI50) with Ba/F3 (N-Ras G12D) and with OCI-AML3 (N-Ras Q61L) was less than 0.5 µM throughout.

In the case of `Cc1ccc(Nc2ncc3c(n2)N(C)C(=O)N(c2cc(-c4ncc(-c5ccccc5OC(F)(F)F)[nH]4)ccc2C)C3)cn1` [Compound No. 9, 1-methyl-3-(2-methyl-5-(5-(2-(trifluoromethoxy)phenyl)-1H-imidazol-2-yl)phenyl)-7-((6-methylpyridin-3-yl)amino)-3,4-dihydropyrimido[4,5-d]pyrimidin-2(1H)-one], the figures for the IC50 on ACK1 and at GCK were 100 to 1000 nM and more than 10000 nM, respectively. For the same compound, the GI50 with Ba/F3 (N-Ras G12D) was less than 0.5 µM; in the assay on OCI-AML3 (N-Ras Q61L), 0.5 to 3 µM.

Take `Cc1ccc(-c2ncc(-c3ccccc3OC(F)(F)F)[nH]2)cc1N1Cc2cnc(Nc3ccc(N4CCOCC4)cc3)nc2N(C)C1=O` [Compound No. 18, 1-methyl-3-(2-methyl-5-(5-(2-(trifluoromethoxy)phenyl)-1H-imidazol-2-yl)phenyl)-7-((4-morpholinophenyl)amino)-3,4-dihydropyrimido[4,5-d]pyrimidin-2(1H)-one]: the IC50 against ACK1 was less than 100 nM; at GCK, 1000 to 10000 nM. In addition, the GI50 in the assay on Ba/F3 (N-Ras G12D) is 0.5 to 3 µM; in the assay on OCI-AML3 (N-Ras Q61L), more than 5 µM.

Regarding `CCN1CCC(n2cc(Nc3ncc4c(n3)N(C)C(=O)N(c3cc(-c5ncc(-c6ccccc6OC)[nH]5)ccc3C)C4)cn2)CC1` [Compound No. 4, 7-((1-(1-ethylpiperidin-4-yl)-1H-pyrazol-4-yl)amino)-3-(5-(5-(2-methoxyphenyl)-1H-imidazol-2-yl)-2-methylphenyl)-1-methyl-3,4-dihydropyrimido[4,5-d]pyrimidin-2(1H)-one], the IC50 against ACK1 was less than 100 nM; against GCK, 100 to 1000 nM. Moreover, the GI50 with Ba/F3 (N-Ras G12D) and in the assay on OCI-AML3 (N-Ras Q61L) was less than 0.5 µM throughout.

For `CCN1CCN(c2ccc(Nc3ncc4c(n3)N(C)C(=O)N(c3cc(-c5ncc(-c6ccccc6OC(F)(F)F)[nH]5)ccc3C)C4)cn2)CC1` [Compound No. 16, 7-((6-(4-ethylpiperazin-1-yl)pyridin-3-yl)amino)-1-methyl-3-(2-methyl-5-(5-(2-(trifluoromethoxy)phenyl)-1H-imidazol-2-yl)phenyl)-3,4-dihydropyrimido[4,5-d]pyrimidin-2(1H)-one], the GI50 in the assay with Ba/F3 (N-Ras G12D) and in the assay on OCI-AML3 (N-Ras Q61L) was more than 5 µM throughout.

Take `CCN1CCC(c2ccc(Nc3ncc4c(n3)N(C)C(=O)N(c3cc(-c5ncc(-c6ccccc6OC(F)(F)F)[nH]5)ccc3C)C4)cn2)CC1` [Compound No. 15, 7-((6-(1-ethylpiperidin-4-yl)pyridin-3-yl)amino)-1-methyl-3-(2-methyl-5-(5-(2-(trifluoromethoxy)phenyl)-1H-imidazol-2-yl)phenyl)-3,4-dihydropyrimido[4,5-d]pyrimidin-2(1H)-one]: the results for the 50% growth inhibitory concentration (GI50) in the assay with Ba/F3 (N-Ras G12D) and in the assay with OCI-AML3 (N-Ras Q61L) were 3 to 5 µM and more than 5 µM, respectively.

On to `COc1ccccc1-c1cnc(-c2ccc(C)c(N3Cc4cnc(Nc5cnn(C6CCN(C(C)=O)CC6)c5)nc4N(C)C3=O)c2)[nH]1` [Compound No. 7, 7-((1-(1-acetylpiperidin-4-yl)-1H-pyrazol-4-yl)amino)-3-(5-(5-(2-methoxyphenyl)-1H-imidazol-2-yl)-2-methylphenyl)-1-methyl-3,4-dihydropyrimido[4,5-d]pyrimidin-2(1H)-one], for which the IC50 against ACK1 was less than 100 nM; at GCK it was 100 to 1000 nM. Further, the GI50 in the assay on Ba/F3 (N-Ras G12D) and in the assay with OCI-AML3 (N-Ras Q61L) was less than 0.5 µM in each case.

On to `COc1ccccc1-c1cnc(-c2ccc(C)c(N3Cc4cnc(Nc5ccc(N6CCN(C(C)=O)CC6)nc5)nc4N(C)C3=O)c2)[nH]1` [Compound No. 6, 7-((6-(4-acetylpiperazin-1-yl)pyridin-3-yl)amino)-3-(5-(5-(2-methoxyphenyl)-1H-imidazol-2-yl)-2-methylphenyl)-1-methyl-3,4-dihydropyrimido[4,5-d]pyrimidin-2(1H)-one], for which the half-inhibitory concentration (IC50) is less than 100 nM at ACK1 and 1000 to 10000 nM at GCK. The 50% growth inhibitory concentration (GI50) with Ba/F3 (N-Ras G12D) and in the assay with OCI-AML3 (N-Ras Q61L) was less than 0.5 µM each time.

As for `CCN1CCC(c2ccc(Nc3ncc4c(n3)N(C)C(=O)N(c3cc(-c5ncc(-c6ccccc6OC)[nH]5)ccc3C)C4)cn2)CC1` [Compound No. 5, 7-((6-(1-ethylpiperidin-4-yl)pyridin-3-yl)amino)-3-(5-(5-(2-methoxyphenyl)-1H-imidazole-2-yl)-2-methylphenyl)-1-methyl-3,4-dihydropyrimido[4,5-d]pyrimidin-2(1H)-one], the values for the IC50 against ACK1 and against GCK were less than 100 nM and 100 to 1000 nM, respectively. In addition, the concentration for 50% growth inhibition (GI50) with Ba/F3 (N-Ras G12D) and with OCI-AML3 (N-Ras Q61L) was less than 0.5 µM throughout.

As for `Cc1ccc(Nc2ncc3c(n2)N(C)C(=O)N(c2cc(-c4ncc(-c5cccc(F)c5F)[nH]4)ccc2C)C3)cn1` [Compound No. 12], the figures for the IC50 at ACK1 and on GCK were 100 to 1000 nM and more than 10000 nM, respectively. For the same compound, the 50% growth inhibitory concentration (GI50) with Ba/F3 (N-Ras G12D) was 0.5 to 3 µM; in the assay with OCI-AML3 (N-Ras Q61L), less than 0.5 µM.

Regarding `COc1ccccc1-c1cnc(-c2ccc(C)c(N3Cc4cnc(Nc5ccc(C)nc5)nc4N(C)C3=O)c2)[nH]1` [Compound No. 3, 3-(5-(5-(2-methoxyphenyl)-1H-imidazol-2-yl)-2-methylphenyl)-1-methyl-7-((6-methylpyridin-3-yl)amino)-3,4-dihydropyrimido[4,5-d]pyrimidin-2(1H)-one], the figures for the IC50 against ACK1 and at GCK were less than 100 nM and 100 to 1000 nM, respectively. For the same compound, the GI50 in the assay on Ba/F3 (N-Ras G12D) and with OCI-AML3 (N-Ras Q61L) was less than 0.5 µM throughout.

Regarding `CC(=O)N1CCN(c2ccc(Nc3ncc4c(n3)N(C)C(=O)N(c3cc(-c5ncc(-c6ccccc6OC(F)(F)F)[nH]5)ccc3C)C4)cn2)CC1` [Compound No. 14, 7-((6-(4-acetylpiperazin-1-yl)pyridin-3-yl)amino)-1-methyl-3-(2-methyl-5-(5-(2-(trifluoromethoxy)phenyl)-1H-imidazol-2-yl)phenyl)-3,4-dihydropyrimido[4,5-d]pyrimidin-2(1H)-one], the IC50 on ACK1 and against GCK was 100 to 1000 nM throughout. In addition, the 50% growth inhibitory concentration (GI50) with Ba/F3 (N-Ras G12D) and in the assay with OCI-AML3 (N-Ras Q61L) was 0.5 to 3 µM each time.

As for `CC(=O)N1CCC(n2cc(Nc3ncc4c(n3)N(C)C(=O)N(c3cc(-c5ncc(-c6ccccc6OC(F)(F)F)[nH]5)ccc3C)C4)cn2)CC1` [Compound No. 17, 7-((1-(1-acetylpiperidin-4-yl)-1H-pyrazol-4-yl)amino)-1-methyl-3-(2-methyl-5-(5-(2-(trifluoromethoxy)phenyl)-1H-imidazol-2-yl)phenyl)-3,4-dihydropyrimido[4,5-d]pyrimidin-2(1H)-one], the GI50 in the assay with Ba/F3 (N-Ras G12D) and with OCI-AML3 (N-Ras Q61L) was more than 5 µM each time.

Take `Cc1ccc(Nc2ncc3c(n2)N(C)C(=O)N(c2cc(-c4ncc(-c5ccccc5OC(F)(F)F)[nH]4)ccc2C)C3)c(C)n1` [Compound No. 8, 7-((2,6-dimethylpyridin-3-yl)amino)-1-methyl-3-(2-methyl-5-(5-(2-(trifluoromethoxy)phenyl)-1H-imidazole-2-yl)phenyl)-3,4-dihydropyrimido[4,5-d]pyrimidin-2(1H)-one]: the figures for the GI50 with Ba/F3 (N-Ras G12D) and with OCI-AML3 (N-Ras Q61L) were 0.5 to 3 µM and 3 to 5 µM, respectively.

For `COc1ccccc1-c1cnc(-c2ccc(C)c(N3Cc4cnc(Nc5ccc(C)nc5C)nc4N(C)C3=O)c2)[nH]1` [Compound No. 2, 7-((2,6-dimethylpyridin-3-yl)amino)-3-(5-(5-(2-methoxyphenyl)-1H-imidazol-2-yl)-2-methylphenyl)-1-methyl-3,4-dihydropyrimido[4,5-d]pyrimidin-2(1H)-one], the GI50 with Ba/F3 (N-Ras G12D) and in the assay with OCI-AML3 (N-Ras Q61L) was 0.5 to 3 µM throughout.
